Assay results as given in US10450317B2, “Notch pathway signaling inhibitor compounds” (Eli Lilly and Company, priority 2015, dated 2019).

Test system: Atoh1
Assay: Hair cell marker induction in whole otic capsule culture (RT-PCR)
Assay type: cell-based, mice
Details: otic capsule explants, 48 hours in culture, vs vehicle-only control, n of 12-17
Text: The otic capsule (otic capsule explant), comprised of the cochlear bony labrinth and vestibular systems, is dissected from 1 to 4 day-old postnatal mice (transgenic strain: Atoh 1-driven nGFP; Lumpkin E A, et al., Gene Expr. Patterns, 2003, 3(4): 389-95) of both sexes generally according to the method described in Parker et al., Journal of Visualized Experiments, 2010, (36), e1685. The entire otic capsule is isolated from the parietal bone and maintained ex-vivo in a roller tube culture system for up to 3 days in medium containing DMEM, high glucose, 5% FBS, 5% horse serum, 1 μg/ml ampicillin.
The otic capsule explant is used to evaluate test compound, in various delivery vehicles, penetrance into the inner ear. Tests are carried out with compositions of Compound 1, Isomer 2, (7.2 mM) in various delivery vehicles. […]
The composition is allowed to remain for 1-2 hours then washed away with culture medium. […] The cochlea is broken open and the entire organ of Corti is then dissected out and prepared for quantitative RT-PCR to measure Atoh1 hair cell marker expression levels (as described in organ of Corti explant assay, above). […] Up-regulation of Atoh1 by Compound 1, Isomer 2, in all tested compositions (2-3 fold, n of 12-17) is measured in comparison to vehicle-only control-treated otic capsule explants after 48 hours in culture.

## COc1ccc2c(c1)N1CCC(C)(C)C1=CC(=O)C2NC(=O)[C@H](C)NC(=O)CCC(F)(F)F (single isomer, unassigned) [Compound 1, Isomer 2]
  Up-regulation of Atoh1 in all tested compositions: 2-3 fold
